Key:
[1] = system: Aβ40 in brain of wild-type mice; assay: Lowering of Aβ40 in brain of wild-type mice; assay type: in vivo; conditions: Mus musculus, po; female C57Bl/6J mice, 30 mg/kg per os, 4 h; brain Aβ40 related to the value in the vehicle group; read-out: Aβ40 (wt mice, brain)
Protocol: Lowering of Aβ40 in Brain of Wild-Type Mice:
Animals and Housing Conditions.
Animals were maintained in a 12/12 h light/dark cycle, with lights starting at 6 a.m., and experiments were conducted during the light phase. Animal housing and experimental procedures were in line with ethical and legal guidelines and were authorized by local veterinary authorities.
Experiment. Female C57Bl/6J mice were treated with a dose of 30 mg/kg of the compounds, 3-4 animals per treatment group. The test compound was dissolved in 5% EtOH, 10% Solutol, and was applied per os at 10 mL/kg. After 4 h, the animals were sacrificed and brain and plasma were collected. The brain was cut into halves and immediately frozen on dry ice. Brain was used for measurement of Aβ40 and plasma was used for determination of compound exposure. […] Brain tissue was homogenized in 2% DEA buffer in a Roche MagnaLyser (20″, 4000 rpm) and subsequently centrifuged for 1 h at 100000 g. DEA was reduced to 0.2% in 50 mM NaCl and one-half of the DEA lysate was passed over an Oasis Solid phase extraction plate (Waters; cat. no. 186000679), which had been activated with MeOH and equilibrated in dH2O (1 mL each). After washes in 10% and 30% MeOH (1 mL each), the Aβ-peptides were eluted in 0.8 mL of 2% NH4OH in 90% MeOH. The eluate was dried over a N2 flow, and the dried sample was reconstituted in 30 μL of AlphaLISA assay buffer. Aβ40 was determined by an AlphaLISA assay (Perkin-Elmer). In a white 96-well, half area microplate (Perkin-Elmer cat. no. 6005561), 20 μL of the reconstituted sample were mixed with 5 μL of biotinylated BAP-24 (specific for C-terminus of Aβ40) (Brockhaus, M.; Grunberg, J.; Rohrig, S.; Loetscher, H.; Wittenburg, N.; Baumeister, R.; Jacobsen, H.; Haass, C. Caspasemediated cleavage is not required for the activity of presenilins in amyloidogenesis and NOTCH signaling. NeuroReport 1998, 9, 1481-1486.) stock=4.4 mg/mL, f.c.5.5 μg/mL), and 5 μL 252Q6 acceptor beads (252Q6 antibody, Invitrogen AMB0062) had been previously conjugated with AlphaLISA Acceptor beads (Perkin-Elmer cat. no. 6772002); final dilution 1:500). The mix was incubated for 1 h at RT in the dark. Then 20 μL of Streptavin-coated Donor Beads (Perkin-Elmer cat. no. 6760002, final dilution 1:125) were added and this final mix was incubated in the dark for another 30 min at RT before RFU was measured in an AlphaScreen Reader (Perkin-Elmer Envision 2104). The value obtained for Aβ40 in the treated animals was related to the value in the vehicle group and is given in %. Alternatively a commercial ELISA was used for Aβ40 determination (Wako ELISA: (“Human/Rat β Amyloid (40) ELISA kit Wako II”; cat nr. 294-64701) following the manufacture's instruction. Also here the Aβ-lowering efficacy was calculated as percentage of the vehicle group.

BACE1 = target: T1, BACE1 (Homo sapiens, UniProt P56817); assay: Cellular Aβ-lowering assay (Abeta 40 AlphaLISA, HEK293 APP cells); assay type: cell-based; conditions: 18-20 hrs incubation, Aβ40 in culture supernatant, read-out: BACE1 cell act. Aβ40 IC50
T1 construct: endogenous in cells; host or cells: HEK293 APP cells
Protocol: Cellular Aβ-lowering assay:
The Abeta 40 AlphaLISA Assay can be used. The HEK293 APP cells were seeded in 96 well Microtiter plates in cell culture medium (Iscove's, plus 10% (v/v) fetal bovine serum, penicillin/streptomycin) to about 80% confluency and the compounds were added at a 3× concentration in ⅓ volume of culture medium (final DMSO concentration was kept at 1% v/v). After 18-20 hrs incubation at 37° C. and 5% CO2 in a humidified incubator, the culture supernatants were harvested for the determination of AP 40 concentrations using Perkin-Elmer Human Amyloid beta 1-40 (high specificity) Kit (Cat#AL275C).
In a Perkin-Elmer White Optiplate-384 (Cat#6007290), 2 ul culture supernatants were combined with 2 μl of a 10× AlphaLISA Anti-hAβ Acceptor beads+Biotinylated Antibody Anti-Aβ 1-40 Mix ([…]/5 nM). After 1 hour room temperature incubation, 16 μl of a 1.25× preparation of Streptavidin (SA) Donor beads (25 μg/mL) were added and incubated for 30 minutes in the Dark. Light Emission at 615 nm was then recorded using EnVision-Alpha Reader. Levels of Aβ 40 in the culture supernatants were calculated as percentage of maximum signal (cells treated with 1% DMSO without inhibitor). The IC50 values were calculated using the Excel XLfit software.

T1 sequence (P56817 46-501): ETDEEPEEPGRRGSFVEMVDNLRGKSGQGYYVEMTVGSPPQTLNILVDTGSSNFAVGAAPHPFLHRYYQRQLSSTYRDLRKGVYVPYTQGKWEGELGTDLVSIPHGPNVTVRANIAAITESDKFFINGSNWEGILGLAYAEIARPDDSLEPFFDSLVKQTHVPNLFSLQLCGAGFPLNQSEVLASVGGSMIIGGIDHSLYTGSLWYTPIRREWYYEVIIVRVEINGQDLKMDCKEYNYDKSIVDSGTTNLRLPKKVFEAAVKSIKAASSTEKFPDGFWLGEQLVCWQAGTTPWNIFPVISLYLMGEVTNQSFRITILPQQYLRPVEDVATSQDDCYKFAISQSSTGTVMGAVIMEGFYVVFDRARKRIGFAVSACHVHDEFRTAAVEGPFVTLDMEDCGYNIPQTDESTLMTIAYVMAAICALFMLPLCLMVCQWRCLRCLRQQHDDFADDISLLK

Question: For `Cc1cc(C#N)cnc1C(=O)Nc1ccc(F)c([C@@]2(C)N=C(N)C(C)(C)[S@@]3(=O)=NCCC[C@H]23)n1` [Example 1AA, N-(6-((4aR,5R,9R)-7-amino-5,8,8-trimethyl-9-oxido-2,3,4,4a,5,8-hexahydro-[1,4]thiazino[2,1-f][1,2]thiazin-5-yl)-5-fluoropyridin-2-yl)-5-cyano-3-methylpicolinamide], which response vs control in vivo at 30 mg/kg [1] is on record?
Answer: 38%

Question: And the IC50 (BACE1)?
Answer: 0.6 nM

Question: Which results are given for `Cc1cc(C#N)cnc1C(=O)Nc1ccc(F)c([C@@]2(C)N=C(N)C(C)(C)[S@@]3(=O)=NCCC[C@@H]23)n1` [Example 1AB, N-(6-((4aS,5R,9R)-7-amino-5,8,8-trimethyl-9-oxido-2,3,4,4a,5,8-hexahydro-[1,4]thiazino[2,1-f][1,2]thiazin-5-yl)-5-fluoropyridin-2-yl)-5-cyano-3-methylpicolinamide]?
Answer: response vs control in vivo at 30 mg/kg [1]: 79%; IC50 (BACE1): 2.3 nM

Question: `Cc1cc(C#N)cnc1C(=O)Nc1ccc(F)c([C@@]2(C)N=C(N)C(C)(C)[S@]3(=O)=NCCC[C@H]23)n1` [Example 1BA, N-(6-((4aR,5R,9S)-7-amino-5,8,8-trimethyl-9-oxido-2,3,4,4a,5,8-hexahydro-[1,4]thiazino[2,1-f][1,2]thiazin-5-yl)-5-fluoropyridin-2-yl)-5-cyano-3-methylpicolinamide] was tested. Which response vs control in vivo at 30 mg/kg [1] did it give?
Answer: 95%

Question: What about the IC50 (BACE1) of the same molecule?
Answer: 0.5 nM

Question: For `Cc1cc(C#N)cnc1C(=O)Nc1ccc(F)c([C@@]2(C)N=C(N)C(C)(C)[S@]3(=O)=NCCC[C@@H]23)n1` [Example 1BB, N-(6-((4aS,5R,9S)-7-amino-5,8,8-trimethyl-9-oxido-2,3,4,4a,5,8-hexahydro-[1,4]thiazino[2,1-f][1,2]thiazin-5-yl)-5-fluoropyridin-2-yl)-5-cyano-3-methylpicolinamide], which response vs control in vivo at 30 mg/kg [1] is on record?
Answer: 93%

Question: What about the IC50 (BACE1) of the same molecule?
Answer: 3.9 nM

Question: With `COc1cnc(C(=O)Nc2ccc(F)c([C@@]3(C)N=C(N)C(C)(C)[S@@]4(=O)=NCCC[C@H]34)n2)cn1` [Example 2AA, N-(6-((4aR,5R,9R)-7-amino-5,8,8-trimethyl-9-oxido-2,3,4,4a,5,8-hexahydro-[1,4]thiazino[2,1-f][1,2]thiazin-5-yl)-5-fluoropyridin-2-yl)-5-methoxypyrazine-2-carboxamide] as the molecule, how does the response vs control in vivo at 30 mg/kg [1] read?
Answer: 83%

Question: What about the IC50 (BACE1) of the same molecule?
Answer: 19.7 nM

Question: `COc1cnc(C(=O)Nc2ccc(F)c([C@@]3(C)N=C(N)C(C)(C)[S@@]4(=O)=NCCC[C@@H]34)n2)cn1` [Example 2AB, N-(6-((4aS,5R,9R)-7-amino-5,8,8-trimethyl-9-oxido-2,3,4,4a,5,8-hexahydro-[1,4]thiazino[2,1-f][1,2]thiazin-5-yl)-5-fluoropyridin-2-yl)-5-methoxypyrazine-2-carboxamide] was tested. Which response vs control in vivo at 30 mg/kg [1] did it give?
Answer: 92%

Question: And the IC50 (BACE1)?
Answer: 18.7 nM

Question: With `COc1cnc(C(=O)Nc2ccc(F)c([C@@]3(C)N=C(N)C(C)(C)[S@]4(=O)=NCCC[C@H]34)n2)cn1` [Example 2BA, N-(6-((4aR,5R,9S)-7-amino-5,8,8-trimethyl-9-oxido-2,3,4,4a,5,8-hexahydro-[1,4]thiazino[2,1-f][1,2]thiazin-5-yl)-5-fluoropyridin-2-yl)-5-methoxypyrazine-2-carboxamide] as the molecule, how does the response vs control in vivo at 30 mg/kg [1] read?
Answer: 87%

Question: And the IC50 (BACE1)?
Answer: 21.7 nM

Question: `CC1(C)C(N)=N[C@](C)(c2nc(NC(=O)c3ncc(Cl)cc3Cl)ccc2F)[C@H]2CCCN=[S@@]21=O` [Example 3AA, N-(6-((4aR,5R,9R)-7-amino-5,8,8-trimethyl-9-oxido-2,3,4,4a,5,8-hexahydro-[1,4]thiazino[2,1-f][1,2]thiazin-5-yl)-5-fluoropyridin-2-yl)-3,5-dichloropicolinamide] was tested. Which response vs control in vivo at 30 mg/kg [1] did it give?
Answer: 76%

Question: And the IC50 (BACE1)?
Answer: 1.3 nM

Question: Which response vs control in vivo at 30 mg/kg [1] does the source give for `Cc1cc(F)cnc1C(=O)Nc1ccc(F)c([C@@]2(C)N=C(N)C(C)(C)[S@@]3(=O)=NCCC[C@H]23)n1` [Example 4AA, N-(6-((4aR,5R,9R)-7-amino-5,8,8-trimethyl-9-oxido-2,3,4,4a,5,8-hexahydro-[1,4]thiazino[2,1-f][1,2]thiazin-5-yl)-5-fluoropyridin-2-yl)-5-fluoro-3-methylpicolinamide] here?
Answer: 80%

Question: And the IC50 (BACE1)?
Answer: 18.1 nM

Question: For `Cc1c(C(=O)Nc2ccc(F)c([C@@]3(C)N=C(N)C(C)(C)[S@@]4(=O)=NCCC[C@H]34)n2)nc2ccc(Cl)cn12` [Example 6AA, N-(6-((4aR,5R,9R)-7-amino-5,8,8-trimethyl-9-oxido-2,3,4,4a,5,8-hexahydro-[1,4]thiazino[2,1-f][1,2]thiazin-5-yl)-5-fluoropyridin-2-yl)-6-chloro-3-methylimidazo[1,2-a]pyridine-2-carboxamide], which response vs control in vivo at 30 mg/kg [1] is on record?
Answer: 103%

Question: What about the IC50 (BACE1) of the same molecule?
Answer: 28.5 nM

Question: Which results are given for `CC1(C)C(N)=N[C@](C)(c2nc(NC(=O)c3ccc(OC(F)F)cn3)ccc2F)[C@H]2CCCN=[S@@]21=O` [Example 7AA, N-(6-((4aR,5R,9R)-7-amino-5,8,8-trimethyl-9-oxido-2,3,4,4a,5,8-hexahydro-[1,4]thiazino[2,1-f][1,2]thiazin-5-yl)-5-fluoropyridin-2-yl)-5-(difluoromethoxy)picolinamide]?
Answer: response vs control in vivo at 30 mg/kg [1]: 65%; IC50 (BACE1): 2.7 nM

Question: Which response vs control in vivo at 30 mg/kg [1] does the source give for `CC1(C)C(N)=N[C@](C)(c2nc(NC(=O)c3ccc(OCC(F)(F)C(F)F)cn3)ccc2F)[C@H]2CCCN=[S@@]21=O` [Example 8AA, N-(6-((4aR,5R,9R)-7-amino-5,8,8-trimethyl-9-oxido-2,3,4,4a,5,8-hexahydro-[1,4]thiazino[2,1-f][1,2]thiazin-5-yl)-5-fluoropyridin-2-yl)-5-(2,2,3,3-tetrafluoropropoxy)picolinamide] here?
Answer: 61%

Question: And the IC50 (BACE1)?
Answer: 35.4 nM

Question: What does the source list for `Cc1cc(C#N)cnc1C(=O)Nc1ccc(F)c([C@@]2(C)N=C(N)C(C)(C)[S@@]3(=O)=NCC[C@@H]23)n1` [Example 9AB, N-(6-((3aS,4R,8R)-6-amino-4,7,7-trimethyl-8-oxido-3,3a,4,7-tetrahydro-2H-isothiazolo[1,5-a][1,4]thiazin-4-yl)-5-fluoropyridin-2-yl)-5-cyano-3-methylpicolinamide]?
Answer: response vs control in vivo at 30 mg/kg [1]: 40%; IC50 (BACE1): 0.6 nM

Question: What does the source list for `Cc1cc(C#N)cnc1C(=O)Nc1ccc(F)c([C@@]2(C)N=C(N)C(C)(C)[S@]3(=O)=NCC[C@H]23)n1` [Example 9BA, N-(6-((3aR,4R,8S)-6-amino-4,7,7-trimethyl-8-oxido-3,3a,4,7-tetrahydro-2H-isothiazolo[1,5-a][1,4]thiazin-4-yl)-5-fluoropyridin-2-yl)-5-cyano-3-methylpicolinamide]?
Answer: response vs control in vivo at 30 mg/kg [1]: 86%; IC50 (BACE1): 14.9 nM

Question: For `Cc1cc(F)cnc1C(=O)Nc1ccc(F)c([C@@]2(C)N=C(N)C(C)(C)[S@@]3(=O)=NCC[C@@H]23)n1` [Example 10AB, N-(6-((3aS,4R,8R)-6-amino-4,7,7-trimethyl-8-oxido-3,3a,4,7-tetrahydro-2H-isothiazolo[1,5-a][1,4]thiazin-4-yl)-5-fluoropyridin-2-yl)-5-fluoro-3-methylpicolinamide], which response vs control in vivo at 30 mg/kg [1] is on record?
Answer: 71%

Question: What about the IC50 (BACE1) of the same molecule?
Answer: 10 nM

Source: patent US9540397B2, “BACE1 inhibitors” (Hoffmann-La Roche Inc., priority 2014, dated 2017)
